Like-named read-outs stand apart in the source and are kept apart here.
Key:
[1] = tested on: ARE gene family (AKR1B10, AKR1C1, AKR1C2, CYP1B1, FTH1P, FTL, G6PD, GCLM, NQO2, SLC7A11, TXNRD1, UGT1A1, UGT1A9, YWHAZ, CD36, CYP1A1, GCLC, HMOX1, NQO1, PSME2 …)

Nc1ccccc1O [2-aminophenol]
sensitizing power (class) (EPISKIN model): STRONG | AHR expression compared to control ([1]; 0.1%): 1.0 | AHR grade (NUMBER OF GENES) ([1]; 0.1%): 0 (if this expression is lower, the grade is 0) | AKR1B10 expression compared to control ([1]; 0.1%): 0.8 | AKR1B10 grade (NUMBER OF GENES) ([1]; 0.1%): 0 (if this expression is lower, the grade is 0) | AKR1C1 expression compared to control ([1]; 0.1%): 1.2 | AKR1C1 grade (NUMBER OF GENES) ([1]; 0.1%): 0 (if this expression is lower, the grade is 0) | AKR1C2 expression compared to control ([1]; 0.1%): 1.1 | AKR1C2 grade (NUMBER OF GENES) ([1]; 0.1%): 0 (if this expression is lower, the grade is 0) | ARE >1.3 (NUMBER OF GENES) ([1]; 0.1%): 5 | CD36 expression compared to control ([1]; 0.1%): 0.9 | CD36 grade (NUMBER OF GENES) ([1]; 0.1%): 0 (if this expression is lower, the grade is 0) | CYP1A1 expression compared to control ([1]; 0.1%): 7.1 | CYP1A1 grade (NUMBER OF GENES) ([1]; 0.1%): 1 (If the expression is greater than 1.3 compared to the control, a grade of 11s given) | CYP1B1 expression compared to control ([1]; 0.1%): 5.3 | CYP1B1 grade (NUMBER OF GENES) ([1]; 0.1%): 1 (If the expression is greater than 1.3 compared to the control, a grade of 11s given) | FTH1P expression compared to control ([1]; 0.1%): 0.9 | FTH1P grade (NUMBER OF GENES) ([1]; 0.1%): 0 (if this expression is lower, the grade is 0) | FTL expression compared to control ([1]; 0.1%): 1.0 | FTL grade (NUMBER OF GENES) ([1]; 0.1%): 0 (if this expression is lower, the grade is 0) | GCLC expression compared to control ([1]; 0.1%): 1.1 | GCLC grade (NUMBER OF GENES) ([1]; 0.1%): 0 (if this expression is lower, the grade is 0) | GCLM expression compared to control ([1]; 0.1%): 2.1 | GCLM grade (NUMBER OF GENES) ([1]; 0.1%): 1 (If the expression is greater than 1.3 compared to the control, a grade of 11s given) | HMOX1 expression compared to control ([1]; 0.1%): 1.1 | HMOX1 grade (NUMBER OF GENES) ([1]; 0.1%): 0 (if this expression is lower, the grade is 0) | NQO1 expression compared to control ([1]; 0.1%): 0.9 | NQO1 grade (NUMBER OF GENES) ([1]; 0.1%): 0 (if this expression is lower, the grade is 0) | NQO2 expression compared to control ([1]; 0.1%): 1.0 | NQO2 grade (NUMBER OF GENES) ([1]; 0.1%): 0 (if this expression is lower, the grade is 0) | S100A8 expression compared to control ([1]; 0.1%): 1.4 | S100A8 grade (NUMBER OF GENES) ([1]; 0.1%): 1 (If the expression is greater than 1.3 compared to the control, a grade of 11s given) | SLC7A11 expression compared to control ([1]; 0.1%): 2.1 | SLC7A11 grade (NUMBER OF GENES) ([1]; 0.1%): 1 (If the expression is greater than 1.3 compared to the control, a grade of 11s given) | TOTAL ARE (NUMBER OF GENES) ([1]; 0.1%): 5 | TXNRD1 expression compared to control ([1]; 0.1%): 3.0 | TXNRD1 grade (NUMBER OF GENES) ([1]; 0.1%): 1 (If the expression is greater than 1.3 compared to the control, a grade of 11s given) | UGT1A1 expression compared to control ([1]; 0.1%): 0.9 | UGT1A1 grade (NUMBER OF GENES) ([1]; 0.1%): 0 (if this expression is lower, the grade is 0) | UGT1A9 expression compared to control ([1]; 0.1%): 1.1 | UGT1A9 grade (NUMBER OF GENES) ([1]; 0.1%): 0 (if this expression is lower, the grade is 0) | AHR expression compared to control ([1]; 1%): 0.6 | AHR grade (NUMBER OF GENES) ([1]; 1%): 0 (if this expression is lower, the grade is 0) | AKR1B10 expression compared to control ([1]; 1%): 0.9 | AKR1B10 grade (NUMBER OF GENES) ([1]; 1%): 0 (if this expression is lower, the grade is 0) | AKR1C1 expression compared to control ([1]; 1%): 4.3 | AKR1C1 grade (NUMBER OF GENES) ([1]; 1%): 1 (If the expression is greater than 1.3 compared to the control, a grade of 11s given) | AKR1C2 expression compared to control ([1]; 1%): 1.2 | AKR1C2 grade (NUMBER OF GENES) ([1]; 1%): 0 (if this expression is lower, the grade is 0) | ARE >1.3 (NUMBER OF GENES) ([1]; 1%): 10 | CD36 expression compared to control ([1]; 1%): 0.6 | CD36 grade (NUMBER OF GENES) ([1]; 1%): 0 (if this expression is lower, the grade is 0) | CYP1A1 expression compared to control ([1]; 1%): 14.6 | CYP1A1 grade (NUMBER OF GENES) ([1]; 1%): 1 (If the expression is greater than 1.3 compared to the control, a grade of 11s given) | CYP1B1 expression compared to control ([1]; 1%): 15.6 | CYP1B1 grade (NUMBER OF GENES) ([1]; 1%): 1 (If the expression is greater than 1.3 compared to the control, a grade of 11s given) | FTH1P expression compared to control ([1]; 1%): 1.2 | FTH1P grade (NUMBER OF GENES) ([1]; 1%): 0 (if this expression is lower, the grade is 0) | FTL expression compared to control ([1]; 1%): 2.1 | FTL grade (NUMBER OF GENES) ([1]; 1%): 1 (If the expression is greater than 1.3 compared to the control, a grade of 11s given) | GCLC expression compared to control ([1]; 1%): 2.2 | GCLC grade (NUMBER OF GENES) ([1]; 1%): 1 (If the expression is greater than 1.3 compared to the control, a grade of 11s given) | GCLM expression compared to control ([1]; 1%): 3.5 | GCLM grade (NUMBER OF GENES) ([1]; 1%): 1 (If the expression is greater than 1.3 compared to the control, a grade of 11s given) | HMOX1 expression compared to control ([1]; 1%): 1.4 | HMOX1 grade (NUMBER OF GENES) ([1]; 1%): 1 (If the expression is greater than 1.3 compared to the control, a grade of 11s given) | NQO1 expression compared to control ([1]; 1%): 1.1 | NQO1 grade (NUMBER OF GENES) ([1]; 1%): 0 (if this expression is lower, the grade is 0) | NQO2 expression compared to control ([1]; 1%): 1.1 | NQO2 grade (NUMBER OF GENES) ([1]; 1%): 0 (if this expression is lower, the grade is 0) | S100A8 expression compared to control ([1]; 1%): 1.2 | S100A8 grade (NUMBER OF GENES) ([1]; 1%): 0 (if this expression is lower, the grade is 0) | SLC7A11 expression compared to control ([1]; 1%): 3.2 | SLC7A11 grade (NUMBER OF GENES) ([1]; 1%): 1 (If the expression is greater than 1.3 compared to the control, a grade of 11s given) | TOTAL ARE (NUMBER OF GENES) ([1]; 1%): 10 | TXNRD1 expression compared to control ([1]; 1%): 4.8 | TXNRD1 grade (NUMBER OF GENES) ([1]; 1%): 1 (If the expression is greater than 1.3 compared to the control, a grade of 11s given) | UGT1A1 expression compared to control ([1]; 1%): 1.6 | UGT1A1 grade (NUMBER OF GENES) ([1]; 1%): 1 (If the expression is greater than 1.3 compared to the control, a grade of 11s given) | UGT1A9 expression compared to control ([1]; 1%): 1.0 | UGT1A9 grade (NUMBER OF GENES) ([1]; 1%): 0 (if this expression is lower, the grade is 0) | AHR expression compared to control ([1]; 10%): 0.7 | AHR grade (NUMBER OF GENES) ([1]; 10%): 0 (if this expression is lower, the grade is 0) | AKR1B10 expression compared to control ([1]; 10%): 1.1 | AKR1B10 grade (NUMBER OF GENES) ([1]; 10%): 0 (if this expression is lower, the grade is 0) | AKR1C1 expression compared to control ([1]; 10%): 9.3 | AKR1C1 grade (NUMBER OF GENES) ([1]; 10%): 1 (If the expression is greater than 1.3 compared to the control, a grade of 11s given) | AKR1C2 expression compared to control ([1]; 10%): 3.4 | AKR1C2 grade (NUMBER OF GENES) ([1]; 10%): 1 (If the expression is greater than 1.3 compared to the control, a grade of 11s given) | ARE >1.3 (NUMBER OF GENES) ([1]; 10%): 14 | CD36 expression compared to control ([1]; 10%): 0.5 | CD36 grade (NUMBER OF GENES) ([1]; 10%): 0 (if this expression is lower, the grade is 0)
